This test deals with human bronchial epithelia. In words: Southern blot of Hirt DNA for rAAV genomes in polarized airway epithelia. In kind it is cell-based. On the procedure: FIGS. 15A–C. Examination of rAAV endocytosis by Southern blot analysis of viral DNA. Hirt DNA from AV.GFP3ori infected or mock infected (Lanes 1 and 7 in both FIGS. 15A and 15B) human bronchial epithelia were extracted for a direct examination of viral genomes by Southern blotting against a P^32-labeled EGFP probe. FIG. 15A depicts viral binding studies in the presence and absence of LLnL with or without EGTA treatment prior to apical or basolateral infection for 1 hour at 4° C. Cell surface-bound virus was completely removed by trypsin (FIG. 15A, lanes 2 through 6). To determine the amount of the surface-bound rAVV, cells were infected with AV.GFP3ori for 1 hour at 4° C. and were not treated with trypsin prior to Hirt DNA extraction. Panel A: lane 8: apical AAV infection; lane 9: apical AAV infection in the presence of LLnL; lane 10: cells were pre-treated with hypotonic EGTA prior to apical infection in the presence of LLnL; lane 11: basolateral infection; lane 12: basolateral infection in the presence of LLnL. FIG. 15B depicts the results of studies evaluating rAAV internalization from either the apical or the basolateral surface in the presence or absence of LLnL, and the internalization from the apical surface after combined treatment with hypotonic EGTA and LLnL. To detect the net amount of the internalized viral genome, all samples in FIG. 15B were treated with trypsin just before Hirt DNA was harvested. The extent of the internalized virus at 4 hours (FIG. 15B, lanes 2 through 6) and 24 hours (FIG. 15B, lanes 8 through 12) incubation at 37° C. after infection is represented by the intensity of the 1.6 kb single stranded viral genome band. FIG. 15B; lane 2; apical AAV infection for 4 hours; lane 3: apical AAV infection in the presence of LLnL for 4 hours; lane 4: cells were pre-treated with hypotonic EGTA prior to apical infection in the presence of LLnL for 4 hours; lane 5: basal infection for 4 hours; lane 6: basolateral infection in the presence of LLnL for 4 hours; lane 8: apical infection for 24 hours; lane 9: apical infection in the presence of LLnL for 24 hours; lane 10: cells were pre-treated with hypotonic EGTA prior to apical infection in the presence of LLnL for 24 hours; lane 11: basolateral infection for 24 hours; lane 12: basolateral infection in the presence of LLnL for 24 hours. […]
Molecular analysis of rAAV viral genomes owing infection of polarized airway epithelial cultures. […] Following binding, the extent of viral internalization was assessed by continuing incubations in the presence of virus at 37° C. for 4–24 hours. […] The 1.6 kb single stranded viral DNA, the 2.7 kb double stranded circular intermediate, and the 4.7 kb double stranded replication from viral genome were detected with a transgene EGFP specific probe at 5×10^6 cpm/ml. […]

“N-acetyl-L-leucinyl-L-leucinal-L-norleucinal [LLnL]”: the “rAAV binding to either surface (Southern blot)” value (1 hour at 4° C.) is on record as “not affected”. Moreover, the “enzymatic degradation of internalized AAV viral DNA” value (LLnL alone) is on record as “did not substantially prevent enzymatic degradation”. In addition, where the note is “hypotonic EGTA pretreatment and LLnL”, the “amount of virus internalized from apical surface” value is recorded as “substantially increased the amount of virus internalized”.

For the origin of these results see US7122335B1, “Compounds and methods to enhance rAAV transduction” (priority 1999, dated 2006).
